Measured values: ChEMBL document CHEMBL1121424, “Orally active cephalosporins and penicillins” (J Med Chem, 1980)
Converted amounts (≈) assume the structure as drawn.

Legend:
Type in all cases: functional
Enterobacter cloacae = assay: Tested for inhibition of visible growth of Enterobacter cloacae
Klebsiella aerogenes = assay: Tested for inhibition of visible growth of Enterobacter aerogenes
Escherichia coli [1] = assay: Tested for inhibition of visible growth of Escherichia coli
Mus musculus [2] = species: Mus musculus; assay: Tested for the antimicrobial activity against Staphylococcus aureus (M202) in mice, perorally; conditions: po
Mus musculus [3] = assay: Tested for the antimicrobial activity against Staphylococcus aureus (M202) in mice, subcutaneously; conditions: sc
Mus musculus [4] = species: Mus musculus; assay: Tested for the antimicrobial activity against Streptococcus pneumoniae (D137) in mice, perorally; conditions: po
Mus musculus [5] = assay: Tested for the antimicrobial activity against Streptococcus pneumoniae (D137) in mice, subcutaneously; conditions: sc
Mus musculus [6] = assay: Tested for the antimicrobial activity against Streptococcus pneumoniae (D815) in mice, subcutaneously; conditions: sc
Mus musculus [7] = species: Mus musculus; assay: Tested for the antimicrobial activity against Streptococcus pneumoniae (D815) in mice, perorally; conditions: po
Mus musculus [8] = species: Mus musculus; assay: Tested for the antimicrobial activity against Streptococcus pyogenes (ST139) in mice, perorally; conditions: po
Mus musculus [9] = assay: Tested for the antimicrobial activity against Streptococcus pyogenes (ST139) in mice, subcutaneously; conditions: sc
Mus musculus [10] = species: Mus musculus; assay: Tested for the antimicrobial activity against Streptococcus pyogenes (St141) in mice, perorally; conditions: po
Mus musculus [11] = assay: Tested for the antimicrobial activity against Streptococcus pyogenes (St141) in mice, subcutaneously; conditions: sc
Mus musculus [12] = assay: Tested for the antimicrobial activity against Staphylococcus aureus (M240) in mice, subcutaneously; conditions: sc
Pseudomonas aeruginosa = assay: Tested for inhibition of visible growth of Pseudomonas aeruginosa
Proteus mirabilis = assay: Tested for inhibition of visible growth of Proteus mirabilis
[13] = Tested for inhibition of visible growth of Salmonella schottmuelleri
Staphylococcus aureus [14] = assay: Tested for inhibition of visible growth of Staphylococcus aureus, benzyl-penicillin sensitive
Streptococcus pyogenes [15] = assay: Tested for inhibition of visible growth of Streptococcus pyogenes
Enterococcus faecalis = assay: Tested for inhibition of visible growth of Streptococcus faecalis
Streptococcus pneumoniae [16] = assay: Tested for inhibition of visible growth of Streptococcus pneumoniae
Mus musculus [17] = species: Mus musculus; assay: Tested for the antimicrobial activity against Staphylococcus aureus (M240) in mice, perorally; conditions: po
Klebsiella pneumoniae = assay: Tested for inhibition of visible growth of Klebsiella pneumoniae
Staphylococcus aureus [18] = assay: Tested for inhibition of visible growth of Staphylococcus aureus
Escherichia coli [19] = assay: Tested for the antimicrobial activity against Escherichia coli in mice perorally; conditions: po
Escherichia coli [20] = assay: Tested for the antimicrobial activity against Escherichia coli in mice
[21] = (§1) Tested for the antimicrobial activity against Salmonella schottmuelleri in mice
[22] = as §1; remark: listed apart in the source
Streptococcus pyogenes [23] = assay: (§2) Tested for the antimicrobial activity against Streptococcus pyogenes in mice
Mus musculus [24] = assay: Tested for the antimicrobial activity against Streptococcus pyogenes in mice, subcutaneously.; conditions: sc
Staphylococcus aureus [25] = assay: Tested for the antimicrobial activity against Staphylococcus aureus
Streptococcus pneumoniae [26] = assay: (§3) Tested for the antimicrobial activity against Streptococcus pneumoniae in mice
Streptococcus pneumoniae [27] = assay: as §3; remark: listed apart in the source
Streptococcus pyogenes [28] = assay: as §2; remark: listed apart in the source
Mus musculus [29] = species: Mus musculus; assay: Tested for the antimicrobial activity against Staphylococcus aureus, benzyl-penicillin resistant in mice, perorally; conditions: po
Staphylococcus aureus [30] = assay: Tested for the antimicrobial activity against Staphylococcus aureus, benzyl-penicillin sensitive in mice, perorally; conditions: po

SMILES | MIC (Enterobacter cloacae) [µg/mL] | MIC (Klebsiella aerogenes) [µg/mL] | MIC (Escherichia coli [1]) [µg/mL] | MIC (Proteus mirabilis) [µg/mL] | MIC [13] [µg/mL] | MIC (Staphylococcus aureus [14]) [µg/mL] | MIC (Streptococcus pyogenes [15]) [µg/mL] | MIC (Enterococcus faecalis) [µg/mL] | MIC (Streptococcus pneumoniae [16]) [µg/mL] | MIC (Klebsiella pneumoniae) [µg/mL] | MIC (Staphylococcus aureus [18]) [µg/mL] | ED50 (Streptococcus pyogenes [23]) [mg/kg] | also measured
CC1(C)SC2C(NC(=O)C(N)c3ccc4c(c3)OCO4)C(=O)N2C1C(=O)O (centres undefined) | > 100 | > 100 | 25 (≈ 63.5 µM) | 25 (≈ 63.5 µM) | 1.6 (≈ 4.07 µM) | 0.1 (≈ 0.254 µM) | ≤ 0.03 | 3.1 (≈ 7.88 µM) | ≤ 0.03 | 6.2 (≈ 15.8 µM) | 100 (≈ 254 µM) |  | ED50 (Mus musculus [2]): 0.25 mg/kg; ED50 (Mus musculus [3]): 0.53 mg/kg; ED50 (Mus musculus [4]): 0.35 mg/kg; ED50 (Mus musculus [5]): 0.16 mg/kg; ED50 (Mus musculus [6]): 0.078 mg/kg; ED50 (Mus musculus [7]): 0.25 mg/kg; ED50 (Mus musculus [8]): 0.29 mg/kg; ED50 (Mus musculus [9]): 0.06 mg/kg; ED50 (Mus musculus [10]): 0.22 mg/kg; ED50 (Mus musculus [11]): 0.13 mg/kg; ED50 (Mus musculus [12]): < 0.063 mg/kg; MIC (Pseudomonas aeruginosa): > 100 µg/mL; ED50 (Mus musculus [17]): 0.32 mg/kg
NC(C(=O)NC1C(=O)N2C(C(=O)O)=C(CSc3cn[nH]n3)CS[C@H]12)c1ccc2c(c1)CCO2 (some centres undefined) | 50 (≈ 102 µM) | 25 (≈ 51.2 µM) | 12.5 (≈ 25.6 µM) | 100 (≈ 205 µM) | 3.1 (≈ 6.35 µM) | 0.4 (≈ 0.819 µM) | 0.1 (≈ 0.205 µM) | 100 (≈ 205 µM) | 0.1 (≈ 0.205 µM) | 6.2 (≈ 12.7 µM) | 1.6 (≈ 3.27 µM) | 0.27 | ED50 (Escherichia coli [19]): 19 mg/kg; ED50 (Escherichia coli [20]): 11 mg/kg; ED50 [21]: > 40 mg/kg; ED50 [22]: 30 mg/kg; ED50 (Mus musculus [24]): 0.19 mg/kg
CC1=C(C(=O)O)N2C(=O)C(NC(=O)[C@H](N)c3ccc4c(c3)OCCO4)C2SC1 (some centres undefined) | > 100 | > 100 | > 100 | > 100 | 50 (≈ 123 µM) | 0.8 (≈ 1.97 µM) | 0.4 (≈ 0.987 µM) | > 100 | 0.8 (≈ 1.97 µM) | 100 (≈ 247 µM) | 3.1 (≈ 7.65 µM) | 1 | ED50 (Staphylococcus aureus [25]): 1.5 mg/kg; ED50 (Streptococcus pneumoniae [26]): 15 mg/kg; ED50 (Streptococcus pneumoniae [27]): 14 mg/kg; ED50 (Streptococcus pyogenes [28]): 0.81 mg/kg; ED50 (Mus musculus [29]): 8.3 mg/kg; ED50 (Staphylococcus aureus [30]): 0.5 mg/kg
